The record followed here is US20110224208A1, “NOVEL INHIBITORS OF FLAVIVIRUS REPLICATION” (KATHOLIEKE UNIVERSITEIT LEUVEN, K.U. LEUVEN R&D, priority 2008, published 2011).

In brackets after ≈: the same amount, converted by molar mass.

This assay has as its system HCV replicon I389luc-ubi-neo/NS3-3'/5.1. In words: Anti-HCV replicon assay (luciferase activity) in Huh-5-2 cells. The assay is classed as cell-based, Hepatitis C virus. The following applies: Hepatitis C virus, Huh-5-2, 72 h, concentration required to inhibit luciferase activity in the replicon system by 50%. As for the experimental part:
Cells were seeded at a density of 7000 cells per well in 96 well View Plate™ (Packard) in medium containing the same components as described above, except for G418. Cells were allowed to adhere and proliferate for 24 hr. At that time, culture medium was removed and serial dilutions of the test compounds were added in culture medium lacking G418. Interferon alfa 2a (500 IU) was included as a positive control. Plates were further incubated at 37° C. and 5% CO2 for 72 hours. Replication of the HCV replicon in Huh-5 cells results in luciferase activity in the cells. Luciferase activity is measured by adding 50 μl of 1×Glo-lysis buffer (Promega) for 15 minutes followed by 50 ul of the Steady-Glo Luciferase assay reagent (Promega). Luciferase activity is measured with a luminometer and the signal in each individual well is expressed as a percentage of the untreated cultures. […] Instead the density of the culture is measured by means of the MTS method (Promega).
In general terms: In antiviral work, replicon cells carry a viral genome segment that copies itself.
One may read the IC50 as the point on the concentration scale where inhibition reaches its midpoint. Low values mean greater potency, high ones weaker potency. In the case of `COCCN1C(=O)c2ccccc2C(C(=O)Nc2ccc(F)c(Cl)c2)C1c1cccs1` (stereo not drawn) [C94, N-(3-chloro-4-fluorophenyl)-2-(2-methoxyethyl)-1-oxo-3-(thiophen-2-yl)-1,2,3,4-tetrahydroisoquinoline-4-carboxamide], the half-maximal inhibitory concentration (IC50) amounted to 0.25 µg/mL (≈ 0.545 µM). Under `COCCN1C(=O)c2ccccc2C(C(=O)Nc2cccc(OC)c2)C1c1cc(C)no1` (stereo not drawn) [C104, 2-(2-methoxyethyl)-N-(3-methoxyphenyl)-3-(3-methylisoxazol-5-yl)-1-oxo-1,2,3,4-tetrahydroisoquinoline-4-carboxamide] stands 10.1 µg/mL (≈ 23.1 µM). `COCCN1C(=O)c2ccccc2C(C(=O)Nc2cccc(OC)c2)C1c1ccnn1C` (stereo not drawn) [C105, 2-(2-methoxyethyl)-N-(3-methoxyphenyl)-3-(1-methyl-1H-pyrazol-5-yl)-1-oxo-1,2,3,4-tetrahydroisoquinoline-4-carboxamide] showed an IC50 of 50.5 µg/mL (≈ 116 µM). Under `COCCN1C(=O)c2ccccc2C(C(=O)Nc2cccc(OC)c2)C1c1cccn1C` (stereo not drawn) [C106, 2-(2-methoxyethyl)-N-(3-methoxyphenyl)-3-(1-methyl-1H-pyrrol-2-yl)-1-oxo-1,2,3,4-tetrahydroisoquinoline-4-carboxamide] stands 44.4 µg/mL (≈ 103 µM); under `COCCN1C(=O)c2ccccc2C(C(=O)Nc2cc(C)nn2C)C1c1cccs1` (stereo not drawn) [C109, N-(1,3-dimethyl-1H-pyrazol-5-yl)-2-(2-methoxyethyl)-1-oxo-3-(thiophen-2-yl)-1,2,3,4-tetrahydroisoquinoline-4-carboxamide], 43.4 µg/mL (≈ 102 µM). For the compound `COCCN1C(=O)c2ccccc2C(C(=O)Nc2cccc(OC(F)(F)F)c2)C1c1cccs1` (stereo not drawn) [C112, 2-(2-methoxyethyl)-1-oxo-3-(thiophen-2-yl)-N-(3-(trifluoromethoxy)phenyl)-1,2,3,4-tetrahydroisoquinoline-4-carboxamide], 0.31 µg/mL (≈ 0.632 µM) corresponded to half-maximal inhibition (IC50).

In turn, `COCCN1C(=O)c2ccccc2C(C(=O)Nc2ccc(OC(F)(F)F)cc2)C1c1cccs1` (stereo not drawn) [C113, 2-(2-methoxyethyl)-1-oxo-3-(thiophen-2-yl)-N-(4-(trifluoromethoxy)phenyl)-1,2,3,4-tetrahydroisoquinoline-4-carboxamide] came in with a half-inhibitory concentration (IC50) of 0.19 µg/mL (≈ 0.387 µM). For `COCCN1C(=O)c2ccccc2C(C(=O)Nc2ccc(C(=O)OC)c(OC)c2)C1c1cccs1` (stereo not drawn) [C114, methyl 2-methoxy-4-(2-(2-methoxyethyl)-1-oxo-3-(thiophen-2-yl)-1,2,3,4-tetrahydroisoquinoline-4-carboxamido)benzoate] the value was 0.47 µg/mL (≈ 0.95 µM).

Compound `COCCN1C(=O)c2ccccc2C(C(=O)Nc2cccc(-n3cccc3)c2)C1c1cccs1` (stereo not drawn) [C115, N-(3-(1H-pyrrol-1-yl)phenyl)-2-(2-methoxyethyl)-1-oxo-3-(thiophen-2-yl)-1,2,3,4-tetrahydroisoquinoline-4-carboxamide] returned an IC50 of 0.29 µg/mL (≈ 0.615 µM). For `COCCN1C(=O)c2ccccc2C(C(=O)Nc2ccc(N3CCOCC3)cc2)C1c1cccs1` (stereo not drawn) [C121, 2-(2-methoxyethyl)-N-(4-morpholinophenyl)-1-oxo-3-(thiophen-2-yl)-1,2,3,4-tetrahydroisoquinoline-4-carboxamide] the value was 1.06 µg/mL (≈ 2.16 µM); for `COCCN1C(=O)c2ccccc2C(C(=O)Nc2ccc(NC(C)=O)cc2)C1c1cccs1` (stereo not drawn) [C129, N-(4-acetamidophenyl)-2-(2-methoxyethyl)-1-oxo-3-(thiophen-2-yl)-1,2,3,4-tetrahydroisoquinoline-4-carboxamide], 6.66 µg/mL (≈ 14.4 µM). For `COCCN1C(=O)c2ccccc2C(C(=O)Nc2ccc3[nH]ncc3c2)C1c1cccs1` (stereo not drawn) [C132, N-(1H-indazol-5-yl)-2-(2-methoxyethyl)-1-oxo-3-(thiophen-2-yl)-1,2,3,4-tetrahydroisoquinoline-4-carboxamide] the value was 1 µg/mL (≈ 2.24 µM); for `COCCN1C(=O)c2ccccc2C(C(=O)Nc2cccc(OC)c2)C1C#N` (stereo not drawn) [C143, 3-cyano-2-(2-methoxyethyl)-N-(3-methoxyphenyl)-1-oxo-1,2,3,4-tetrahydroisoquinoline-4-carboxamide], 24.3 µg/mL (≈ 64 µM); for `COCCN1C(=O)c2ccccc2C(C(=O)Nc2ccc(Cl)cc2N)C1c1cccs1` (stereo not drawn) [C144, N-(2-amino-4-chlorophenyl)-2-(2-methoxyethyl)-1-oxo-3-(thiophen-2-yl)-1,2,3,4-tetrahydroisoquinoline-4-carboxamide], 5.16 µg/mL (≈ 11.3 µM). Under `COCCN1C(=O)c2cc(N)ccc2C(C(=O)Nc2cccc(OC)c2)C1c1cccs1` (stereo not drawn) [C147, 7-amino-2-(2-methoxyethyl)-N-(3-methoxyphenyl)-1-oxo-3-(thiophen-2-yl)-1,2,3,4-tetrahydroisoquinoline-4-carboxamide] stands 0.14 µg/mL (≈ 0.31 µM). As to `COCCN1C(=O)c2ccccc2C(C(=O)Nc2nc(C)co2)C1c1cccs1` (stereo not drawn) [C154, 2-(2-methoxyethyl)-N-(4-methyloxazol-2-yl)-1-oxo-3-(thiophen-2-yl)-1,2,3,4-tetrahydroisoquinoline-4-carboxamide], the IC50 was 3.68 µg/mL (≈ 8.94 µM). For `COCCN1C(=O)c2ccccc2C(C(=O)Nc2nc(C)c(C)s2)C1c1cccs1` (stereo not drawn) [C156, N-(4,5-dimethylthiazol-2-yl)-2-(2-methoxyethyl)-1-oxo-3-(thiophen-2-yl)-1,2,3,4-tetrahydroisoquinoline-4-carboxamide] the value was 37.4 µg/mL (≈ 84.7 µM). Under `COCCN1C(=O)c2ccccc2C(C(=O)Nc2ccc(Oc3ccccc3)nc2)C1c1cccs1` (stereo not drawn) [C158, 2-(2-methoxyethyl)-1-oxo-N-(6-phenoxypyridin-3-yl)-3-(thiophen-2-yl)-1,2,3,4-tetrahydroisoquinoline-4-carboxamide] stands 0.04 µg/mL (≈ 0.0801 µM).

Compound `COCCN1C(=O)c2ccccc2C(C(=O)Nc2ccncn2)C1c1cccs1` (stereo not drawn) [C162, 2-(2-methoxyethyl)-1-oxo-N-(pyrimidin-4-yl)-3-(thiophen-2-yl)-1,2,3,4-tetrahydroisoquinoline-4-carboxamide] registered an IC50 of 3.56 µg/mL (≈ 8.72 µM).

`COCCN1C(=O)c2ccccc2C(C(=O)Nc2ccc3scnc3c2)C1c1cccs1` (stereo not drawn) [C164, N-(benzo[d]thiazol-5-yl)-2-(2-methoxyethyl)-1-oxo-3-(thiophen-2-yl)-1,2,3,4-tetrahydroisoquinoline-4-carboxamide] had a half-inhibitory concentration (IC50) of 0.13 µg/mL (≈ 0.28 µM). For `COCCN1C(=O)c2ccccc2C(C(=O)Nc2ccc(C(C)C)cc2)C1c1cccs1` (stereo not drawn) [C165, N-(4-isopropylphenyl)-2-(2-methoxyethyl)-1-oxo-3-(thiophen-2-yl)-1,2,3,4-tetrahydroisoquinoline-4-carboxamide] the value was 0.4 µg/mL (≈ 0.892 µM); for `COCCN1C(=O)c2ccccc2C(C(=O)Nc2ccc3nccnc3c2)C1c1cccs1` (stereo not drawn) [C171, 2-(2-methoxyethyl)-1-oxo-N-(quinoxalin-6-yl)-3-(thiophen-2-yl)-1,2,3,4-tetrahydroisoquinoline-4-carboxamide], 0.12 µg/mL (≈ 0.262 µM). Under `COCCN1C(=O)c2ccccc2C(C(=O)Nc2ccc3c(c2)CCN3C)C1c1cccs1` (stereo not drawn) [C176, 2-(2-methoxyethyl)-N-(1-methylindolin-5-yl)-1-oxo-3-(thiophen-2-yl)-1,2,3,4-tetrahydroisoquinoline-4-carboxamide] stands 0.48 µg/mL (≈ 1.04 µM); under `COCCN1C(=O)c2ccccc2C(C(=O)Nc2cc(-c3ccccc3)[nH]n2)C1c1cccs1` (stereo not drawn) [C182, 2-(2-methoxyethyl)-1-oxo-N-(5-phenyl-1H-pyrazol-3-yl)-3-(thiophen-2-yl)-1,2,3,4-tetrahydroisoquinoline-4-carboxamide], 21.8 µg/mL (≈ 46.1 µM).
